Patent US12533353B2, “Methods of treatment of cancer comprising CDC7 inhibitors” (CARNA BIOSCIENCES, INC., priority 2018, dated 2026)
Values joined by “and” are separate entries in the source; they are usually repeats but may differ in a detail not shown here. Equal values may be shown once.

Experiments:
[1] = system: MCM2 at Ser40/41 and Ser53 (MV411 cells); experiment: Phosphorylation status of Cdc7 target MCM2 in cells; type: cell-based
Experimental: MV411 cells were also treated with SRA141 in a dose-dependent manner (at concentrations between 0.5 and 3.3 μM) and were subsequently assessed for phosphorylation status of MCM2 at Ser40/41 and Ser53.

[2] = In vitro metabolism in hepatocytes; type: in vitro ADME
Source text: Eleven metabolites were identified across species, of which 6 occurred in the human matrix. One human-specific metabolite was identified, but only at trace levels. The mouse, rat and dog hepatocyte metabolite profiles contained all the other human metabolites.

[3] = system: panel of 235 cancer cell lines; experiment: CellTiter-Glo luminescent cell viability assay, 72-hour incubation; type: cell-based
Experimental: The concentration-dependent effect of SRA141 on cell viability was determined in a panel of 235 cancer cell lines, utilizing the CellTiter-Glo™ luminescence assay (Promega) with a 72-hour drug incubation period. The 50% inhibition concentration (IC50) was determined in the cancer cell lines using Cell Titer-Glo® luminescent cell viability assay after incubation with SRA141 at different concentrations.

[4] = system: Colo-205 tumor xenografts; experiment: Rat Colo-205 colorectal xenograft efficacy; type: in vivo; details: for tumor growth inhibition: 5 days of 7-day cycle, Day 31
Experimental: The efficacy of a Cdc7 inhibitor (compound SRA141) as a monotherapy was tested in a rat xenograft model of colorectal cancer (CRC) (FIG. 7). Female Rowett nude rats were inoculated sub-cutaneously with 2×10^7 COLO-205 human colorectal carcinoma cells. All rats were gamma-irradiated (4Gy) 24 hours before tumor cell injection. The COLO-205 cells were injected in 0.2 mL PBS in 1:1 Matrigel®. Female The nude rats bearing Colo-205 tumor xenografts were orally administered (i) vehicle control (0.5% CMC-Na/1% Lutrol F-68) or (ii) SRA141 150 mg/kg once a day (QD) for 5 consecutive days of a 7-day cycle for 6 weeks or (iii) SRA141 75 mg/kg twice a day (BID) for 5 consecutive days of a 7-day cycle for 6 weeks (n=7 per treatment group). Tumor growth inhibition was calculated on Day 31, the final day all vehicle control animals remained on study. Tumor volume measurements and body weight measurements were taken biweekly.

MV-4-11 xenograft tumors = experiment: MV-4-11 acute myeloid leukemia xenograft, SRA141 monotherapy; type: in vivo, mouse; details: for average tumor volume at day 21: 3 weeks; for tumor growth inhibition: Day 21
Experimental: The efficacy of a Cdc7 inhibitor (compound I-D, also named SRA141) alone as a monotherapy was tested in xenografts using an acute myeloid leukemia cell line, MV-4-11. Female BALB/c mice bearing MV-4-11 xenograft tumors were administered SRA141 at various doses. 60 female BALB/C mice aged 5-6 weeks were subcutaneously inoculated MV-4-11 tumor cells. Mice were inoculated with 5.0×10^6 cells (mixed with Matrigel® at a ratio of 1:1) per mouse. 32 mice were selected and randomized into 4 groups and were orally administered (i) vehicle control (0.2 M HCl/0.5% MC400) or (ii) SRA141 at 30 or 60 mg/kg BID for 3 weeks or (iii) SRA141 120 mg/kg QD for 3 weeks (n=8 per treatment group). The body weights of mice were recorded once per week before grouping and mice conditions were recorded daily during the treatment. After 21 days of dosing, mice were sacrificed for tumor weight measurement. Tumor growth inhibition was calculated on Day 21, the final day of the study.

MV-4-11 tumor xenografts = experiment: Rat xenograft model of AML (MV-4-11), SRA141 monotherapy; type: in vivo; details: 75 mg/kg
numerous cell lines = experiment: Two viability assays versus other Cdc7 inhibitors; type: cell-based; details: two different viability assays
OATP1B1 = OATP1B1 (Homo sapiens, UniProt Q9Y6L6); experiment: In vitro transporter inhibition; type: in vitro ADME
OATP1B1, sequence (Q9Y6L6 whole entry): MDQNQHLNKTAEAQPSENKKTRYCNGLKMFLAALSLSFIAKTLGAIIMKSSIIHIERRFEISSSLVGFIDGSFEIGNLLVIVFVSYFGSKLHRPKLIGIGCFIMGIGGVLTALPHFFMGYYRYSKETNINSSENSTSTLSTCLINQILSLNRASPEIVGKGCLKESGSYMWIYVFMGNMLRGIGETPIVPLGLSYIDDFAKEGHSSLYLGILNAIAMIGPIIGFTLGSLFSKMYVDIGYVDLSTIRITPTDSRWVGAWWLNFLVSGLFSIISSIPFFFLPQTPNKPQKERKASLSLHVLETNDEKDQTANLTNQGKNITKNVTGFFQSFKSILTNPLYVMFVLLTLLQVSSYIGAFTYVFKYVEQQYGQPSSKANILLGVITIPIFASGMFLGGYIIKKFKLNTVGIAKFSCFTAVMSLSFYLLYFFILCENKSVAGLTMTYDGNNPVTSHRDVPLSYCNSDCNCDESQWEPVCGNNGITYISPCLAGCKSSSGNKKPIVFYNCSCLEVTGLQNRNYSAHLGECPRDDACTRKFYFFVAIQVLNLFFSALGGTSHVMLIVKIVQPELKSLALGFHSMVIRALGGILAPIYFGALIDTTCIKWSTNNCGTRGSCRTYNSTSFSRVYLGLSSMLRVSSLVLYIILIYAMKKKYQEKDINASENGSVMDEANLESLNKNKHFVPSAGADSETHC

AM5512 = experiment: AML PDX ex vivo 3D culture, 5 days; type: cell-based
Experimental: (§1) The activity of SRA141 was investigated in in vitro and ex vivo three-dimensional (3D) cultures prepared from three AML cell lines (EOL-1, Molm-16 and MV-4-11) and three AML PDX models (AM5512, AM7440 and AM7577), respectively. Tumor cultures were treated with SRA141 (0.08 to 33 μM) for 5 days.

AM7577 = experiment: AML PDX ex vivo 3D culture, 5 days; type: cell-based
Experimental: as §1

AM7440 = experiment: AML PDX ex vivo 3D culture, 5 days; type: cell-based
Experimental: as §1

[5] = system: Colo-205, SW620, SNU-398, NCI-H716, MDA-MB-231, NCI-H1573 and SW1116; experiment: Four orthogonal antiproliferative assays (CTG, CTB, CyQuant, Calcein AM); type: cell-based; details: 144 h compared with 72 h, all assays and cell lines
Source text: The antiproliferative activity of SRA141 was further characterized in seven cell lines (Colo-205, SW620, SNU-398, NCI-H716, MDA-MB-231, NCI-H1573 and SW1116) using four orthogonal assays designed to measure ATP levels (CTG); metabolic activity (CellTiter-Blue (CTB)); DNA content of the cells (CyQuant); and esterase activity (Calcein AM). The relative sensitivities of cell lines within each assay format were generally concordant.

CCOC(=O)C1=C(NN2CCN(CC(F)(F)F)CC2)O/C(=C\c2c[nH]c3ncccc23)C1=O [SRA141]
concentration from which MCM2 phosphorylation at Ser40/41 and Ser53 was reduced [1]: 0.5 µM
metabolic stability ([2]; dog hepatocytes): favorable metabolic stability
metabolic stability ([2]; rat hepatocytes): favorable metabolic stability
activity in hematologic-derived cell lines ([3]; 59 hematologic cancer cell lines): Significant activity
IC50 ([3]; solid tumor cell lines of bladder, sarcoma, colon and cecum, renal, head-and-neck, melanoma, gastric lineages): < 3000 nM
complete tumor regressions (no measurable tumor for 3 consecutive measurements) ([4]; 75 mg/kg BID): 4 of 7
partial regression (tumor volume <50% of initial volume for 3 consecutive measurements) ([4]; 75 mg/kg BID): 1 of 7
tumor growth inhibition ([4]; 75 mg/kg BID): 93%
tumor growth inhibition ([4]; 150 mg/kg QD): 50%
average relative body weight change (RCBW) at day 21 (MV-4-11 xenograft tumors; 30 mg/kg BID): 16.39%
average tumor volume at day 21 (MV-4-11 xenograft tumors; 30 mg/kg BID oral): 655.68 mm^3
tumor growth inhibition (MV-4-11 xenograft tumors; 30 mg/kg BID): 59%
average relative body weight change (RCBW) at day 21 (MV-4-11 xenograft tumors; 60 mg/kg BID): 3.18%
average tumor volume at day 21 (MV-4-11 xenograft tumors; 60 mg/kg BID oral): 300.77 mm^3
tumor growth inhibition (MV-4-11 xenograft tumors; 60 mg/kg BID): 81%
average relative body weight change (RCBW) at day 21 (MV-4-11 xenograft tumors; 120 mg/kg QD): 8.47%
average tumor volume at day 21 (MV-4-11 xenograft tumors; 120 mg/kg QD oral): 530.83 mm^3
tumor growth inhibition (MV-4-11 xenograft tumors; 120 mg/kg QD): 67%
tolerability (MV-4-11 xenograft tumors; all treatments): tolerated with no significant body weight loss
TGI, additional studies (MV-4-11 tumor xenografts; day 27 of treatment): 92%
TGI, additional studies (MV-4-11 tumor xenografts; day 34 of treatment): 85%
in vitro activity versus TAK-931 and LY-3177833 (numerous cell lines): comparable or superior in vitro activity
inhibition at 10 µM (OATP1B1): > 50%
IC50 (AM5512): 3200 nM and 3160 nM
IC50 (AM7577): 150 nM
IC50 (AM7440): 1610 nM
potency versus treatment duration [5]: consistent increase of SRA141 potency was observed with a longer treatment duration of 144 h
